Data set [1] in a line: Storage under ambient conditions: hygroscopicity and crystallinity (PXRD). The data set is classed as physicochemical. The conditions noted are these: atmospheric / ambient conditions, several months for the CD-MOF-1 formulation. How it is done: FIG. 3A depicts powder X-ray diffraction (PXRD) of freshly prepared CD-MOF-1 formulations of ibuprofen prepared by co-crystallization from the potassium salt of ibuprofen and adsorption of the deprotonated acid form of ibuprofen within a pre-existing CD-MOF-1, compared to the predicted I432 diffraction pattern.
Three formulations were tested: ibuprofen, potassium salt, and a physical mixture of 23 wt. % ibuprofen, potassium salt with γ-CD (which is analogous to a stoichiometric loading of ibuprofen within CD-MOF-1 created by co-crystallization) were used as control samples, and the third formulation contained CD-MOF-1 loaded with 26 wt. % ibuprofen by the adsorption protocol. The potassium salt of ibuprofen was considered to be the most appropriate control form of ibuprofen in this study, as the results of the solvent-dependent adsorption loading of ibuprofen is evidence that an anion exchange process was occurring within CD-MOf-1, i.e., deprotonation of the free-acid form of ibuprofen, which was facilitated by water-miscible polar solvents. […] It is used, however, in rapid release gelatin capsules.

The test system of data set [2] is MCF-10A (human mammary epithelial cells). Description: Growth inhibition / cell viability (Cell Titer-Glo) on MCF-10A cells. The data set is classed as cell-based. The settings on record: 48 hours, tested up to 100 μM. How it is done:
(§1) Toxicity studies of both CD-MOF-1 and ibuprofen were carried out in vitro on two cell lines: MCF-10A (human mammary epithelial cells) (FIG. 4A) and MDA-MB-231 (human breast adenocarcinoma) (FIG. 4B). For both cell lines, no IC50 value could be obtained for CD-MOF-1, and ibuprofen up to concentrations of 100 μM.
(§2) Cell Studies. For cell studies, CD-MOF-1 was solubilized in H2O and the free-acid of ibuprofen was solubilized in Me2SO. The growth inhibition of various cell lines was determined according to the protocols from the NCl/NIH Developmental Therapeutics Program, and in collaboration with the Northwestern University Developmental Therapeutics Core Facility. Cells were plated in triplicate in 96 well plates. The cells were plated at densities of 10,000 per well in 90 μL for MDA-MB-231; and 25,000 per well in 90 μL for MCF-10A. The MDA-MB-231 cells were cultured in RPMI1640 media supplemented with 10% Fetal Bovine Serum (FBS), and 2 mM glutamine with 5% CO2 at 37° C. For experiments, 5% of FBS and 50 μg/mL of gentamycin were used. […]
(§3) Time zero cells (Tz) were processed according to the Promega Cell Titer Glo, and the following day Cell Titer-Glo Luminescent Cell Viability Assay. […] The plates were shaken for 2 min and allowed to sit for activation prior to reading for 10 min. Plates were read on a BioTek reader using the luminescence program.
On the technique in general: ATP-based viability assays read luminescence as a measure of living cells.

Data set [3] deals with MDA-MB-231 (human breast adenocarcinoma). The data set can be described thus: Growth inhibition / cell viability (Cell Titer-Glo) on MDA-MB-231 cells. The conditions noted are these: 48 hours, tested up to 100 μM. The data set is classed as cell-based. How it is done:
as §1, §2, §3

Consider `CC(C)Cc1ccc(C(C)C(=O)[O-])cc1.[K+]` (stereo not drawn) [potassium salt of ibuprofen, ibuprofen, potassium salt], for which, in data set [1], the hygroscopicity entry is on record as “very hygroscopic”. With `CC(C)Cc1ccc(C(C)C(=O)O)cc1` (racemic) [ibuprofen], the IC50 in data set [2] and in data set [3] was over 100 µM each time.

By IC50 is commonly meant the concentration that gives 50% inhibition. Read a high IC50 as weaker potency.
